{"source": "patent US20230272012A1", "about": "“PEPTIDES AND METHODS OF USE” (REALTA LIFE SCIENCES, INC., priority 2020, published 2023)", "key": {"[1]": {"assay": "Total Antioxidant Capacity (TAC) assay", "settings": "highest peptide concentration 1.5 mM", "description": "As previously reported, the TAC (Total Antioxidant Capacity) Assay (Cell Biolabs, Inc, San Diego, Calif.) was used to measure the antioxidant capacity of the PIC1 variants based on the reduction of copper (II) to copper (I). The kit protocol was performed per the manufacturer's recommendations.\nThe antioxidant properties for the PIC1 variants were evaluated in a Total Antioxidant Capacity (TAC) assay, as previously reported. Total antioxidant activity over a range of peptide concentrations were determined for the stapled and the D-amino acid peptides based on the PA-I8Sar and PA-C9Sar backbones (FIG. 8A-8D), with the activity of the highest peptide concentration reported (1.5 mM) (FIGS. 4A and B, respectively). […] For the D-amino acid variants, there was variation in the amount of antioxidant activity with the peptides having similar, slightly lower and slightly higher levels of total antioxidant capacity. In contrast, stapled peptides (PA-0135 through -0140) as well as combination of stapled and D-amino acid peptides had reduced total antioxidant capacity (FIG. 4A)."}, "[2]": {"assay": "ABO incompatibility hemolytic assay of complement activity (CH50-type)", "format": "cell-based, human", "settings": "human; peptide 0.8 mg/ml (~0.5 mM); read-out: decrease of ABO hemolysis compared to PA-I8Sar", "procedure,_shortened": "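Type AB human erythrocytes (5.0×10^7) incubated with 15% (final) type O human serum and 0.5 mM peptide in GVBS^++, 1 h at 37 °C. Hemolysis read as supernatant absorbance at 412 nm, expressed as percent of the serum-plus-RBC positive control; means of three independent experiments ±SEM.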"}, "[3]": {"format": "in vivo, rat", "settings": "IV in Wistar rats, 20, 200, 400 mg/kg; 0.5-1440 minute", "description": "(§1) Male Wistar rats with indwelling jugular catheters were administered PA-0117, -0127, -0130, and -0133 with groups of three animals receiving 20, 200 and 400 mg/kg of the compound as a single, bolus, IV infusion. A control group of rats received an infusion of saline IV. At various time points after infusion (0.5, 2, 5, 20, 60, 120, 240, 480, 1440 minute) an aliquot of blood was drawn and plasma isolated and frozen at −70° C. pending analysis. Animals were sacrificed after the terminal blood draw and a gross necropsy performed.\n(§2) PA-0117 could not be analyzed as no functional complement activity was obtained from the plasma samples. […] PA-0117 was analyzed in a C1q target acquisition assay (C1q binding assay) as described in Example 1 (FIG. 9). […] PA-0127 and -0130 levels were determined by coating the plate with the plasma samples and directly detecting the peptides by rabbit antibody raised against PA-0020 (peptide sequence […]; SEQ ID NO: 57) (FIGS. 10B and 11B). […] PA-0133 could not be detected by the available antibodies.\nPA-0117: The hemolysis assay results were not useable (few pre-bleeds had any activity, and only a few other random samples had any complement activity). The PK assay for PA-0117 was performed by sandwich ELISA (FIG. 9). PA-0127: The results of the hemolysis assay are discussed herein (see also FIG. 10A). […] PA-0130: The results of the hemolysis assay are discussed herein (see also FIG. 11A). […] PA-0133: The results of the hemolysis assay are discussed herein (FIG. 12)."}, "CTLA-4": {"biological_target": "T1, CTLA-4 (Homo sapiens, UniProt P16410)", "T1 sequence (P16410 36-223)": "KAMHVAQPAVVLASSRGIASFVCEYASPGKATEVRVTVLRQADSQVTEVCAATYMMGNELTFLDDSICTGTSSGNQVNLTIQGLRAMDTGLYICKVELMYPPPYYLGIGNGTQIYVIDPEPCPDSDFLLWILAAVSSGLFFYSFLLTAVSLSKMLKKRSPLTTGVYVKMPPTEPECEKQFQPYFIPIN", "assay": "Peptide binding to immobilized CTLA-4, ELISA plate-based assay", "settings": "increasing amounts of peptide", "description": "(§3) RLS-0117 was allowed to bind to immobilized CTLA-4, PD-1, PD-L1 on the surface of the plate. Bound C1q served as a positive and control for peptide binding. Increasing amounts of peptides were added to the plates followed by a rabbit polyclonal antibody that recognizes the peptides and then a secondary anti-rabbit antibody conjugated with HRP. The plate was then developed by addition of TMB as the substrate for the colorimetric assay.\n(§4) The inventors further evaluated if RLS-0117 could bind to the well characterized checkpoint inhibitor, cytotoxic T-lymphocyte associated protein 4 (CTLA-4 aka CD152). […] Therefore, the pharmaceutical inhibition of CTLA-4 or its ligand has been considered a promising strategy by many cancer researchers and is a therapeutic target in cancer immunotherapy. To ascertain the ability of RLS-0117 to bind CTLA-4, a binding assay was performed in which these proteins were coated on a microtiter plate followed by incubation with increasing amounts of either […]. Plates coated with PD-1, PD-L1 and C1q served as a positive control […]."}, "PD-L1": {"biological_target": "PD-L1 (Homo sapiens, UniProt Q9NZQ7)", "sequence (Q9NZQ7 19-290)": "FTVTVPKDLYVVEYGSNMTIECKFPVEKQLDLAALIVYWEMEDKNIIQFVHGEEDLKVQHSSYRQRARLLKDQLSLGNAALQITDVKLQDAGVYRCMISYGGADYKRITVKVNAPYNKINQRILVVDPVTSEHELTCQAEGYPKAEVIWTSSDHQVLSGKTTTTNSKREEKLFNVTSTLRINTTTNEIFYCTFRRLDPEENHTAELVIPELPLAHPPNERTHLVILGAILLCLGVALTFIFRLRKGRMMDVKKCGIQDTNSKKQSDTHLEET", "assay": "Peptide binding to immobilized PD-L1, ELISA plate-based assay", "settings": "increasing amounts of peptide", "description": "as §3, §4"}, "complement activity": {"tested_on": "complement activity", "assay": "Hemolytic assay of plasma after IV infusion into rats", "format": "in vivo, rat", "settings": "IV in Wistar rats; early time points at the highest dose", "description": "as §1, §2"}}, "note": "Bridge positions count the residues as written; N and C are the ends. Square brackets hold non-standard residues; d marks the D form. Ends that are not written are not given here. Peptide text beside a SMILES is read from it. R8 = C=CCCCCCC[C@@](C)(N)C(=O)O; S5 = C=CCCC[C@](C)(N)C(=O)O; Sar = CNCC(=O)O", "data": [{"compound": "CC[C@H](C)[C@H](N)C(=O)N[C@]1(C)CCCCCCC=CCCC[C@@](C)(C(=O)N[C@@H](CS)C(=O)N[C@@H](CCC(N)=O)C(=O)N[C@@H](CCC(=O)O)C(=O)N[C@@H](CCCNC(=N)N)C(=O)N[C@@H](C)C(=O)N[C@@H](C)C(=O)O)NC(=O)CN(C)C(=O)[C@@H]2CCCN2C(=O)[C@H](CCC(=O)O)NC(=O)[C@H](CC(C)C)NC(=O)[C@H]([C@@H](C)CC)NC(=O)[C@H](CC(C)C)NC1=O", "note": "[PA-0115, IR8LILEP(Sar)S5CQERAA] (H-I[R8]LILEP[Sar][S5]CQERAA-OH; staple 2-9)", "values": [{"measurement": "total antioxidant capacity compared with PA-I8Sar", "setting": "[1]", "result": "much less antioxidant activity"}, {"measurement": "total antioxidant capacity compared with PA-I8Sar", "setting": "[1]; listed as PA-0015", "result": "reduction in total antioxidant capacity"}, {"measurement": "decrease in ABO hemolysis compared to reference peptide at 1 h", "setting": "[2]", "result": 30, "unit": "%"}]}, {"compound": "CC[C@H](C)[C@H](N)C(=O)N[C@@H](C)C(=O)N[C@@H](CC(C)C)C(=O)N[C@H](C(=O)N[C@@H](CC(C)C)C(=O)N[C@@H](CCC(=O)O)C(=O)N1CCC[C@H]1C(=O)N(C)CC(=O)N[C@@H](CS)C(=O)N[C@@]1(C)CCCC=CCCC[C@@](C)(C(=O)N[C@@H](C)C(=O)O)NC(=O)[C@H](CCCNC(=N)N)NC(=O)[C@H](CCC(=O)O)NC(=O)[C@H](CCC(N)=O)NC1=O)[C@@H](C)CC", "note": "[PA-0117, IALILEP(Sar)CS5QERS5A] (H-IALILEP[Sar]C[S5]QER[S5]A-OH; staple 10-14)", "values": [{"measurement": "peptide level in plasma over time", "setting": "[3]", "result": "detected at early time points at each dose and decreased over time"}, {"measurement": "binding to CTLA-4", "setting": "CTLA-4", "result": "bound CTLA-4"}, {"measurement": "binding to PD-L1", "setting": "PD-L1", "result": "dose-dependent binding"}, {"measurement": "decrease in ABO hemolysis compared to reference peptide at 1 h", "setting": "[2]", "result": 25, "unit": "%"}]}, {"compound": "IALILEP(Sar)CCQERA (IALILEP[Sar]CCQERA; cysteine pairing not given here) [RLS-0133*]", "values": [{"measurement": "inhibition of complement activity in the hemolytic assay of rat plasma", "setting": "complement activity", "result": "inhibit complement activation"}]}, {"compound": "IALILEP(Sar)dCCQERRA (IALILEP[Sar][dC]CQERRA; cysteine pairing not given here) [RLS-0127*]", "values": [{"measurement": "inhibition of complement activity in the hemolytic assay of rat plasma", "setting": "complement activity", "result": "inhibit complement activation"}]}]}
